Reference: PMC11726677, “Eradication of Therapy-Resistant Cancer Stem Cells by Novel Telmisartan Derivatives” (Journal of Medicinal Chemistry, 2024)

Columns and labels:
[1] = tested on: STAT5; experiment: Jess Simple Western immunoassay of STAT5/pSTAT5 in IGROV-1 SP cells; format: cell-based, human; settings: IGROV-1 SP, 10 μM, 72 h
Description: The impact of STAT5 activation on the mode of action was investigated in selected solid tumor cell lines as well.
Protein extracts were prepared as previously described.[44] Protein expression was determined using the capillary-based Jess Simple Western detection system (ProteinSimple, BioTechne) according to the manufacturer’s instructions at default settings. […] Horseradish peroxidase (HRP)-conjugated secondary antirabbit antibody, which was included in the Jess Detection Module kit, was used. Data analysis was conducted using Compass for Simple Western 4.0 software (ProteinSimple, BioTechne).

[2] = Caco2 permeability (bidirectional); format: in vitro ADME; settings: human, Caco-2; Papp B–A/Papp A–B
Description: The medium was changed regularly and on day 20 the permeability study was performed. The monolayers were prepared by rinsing the apical and basolateral surfaces with Hanks Balanced Salt Solution (HBSS) twice at the desired pH and by incubating for 40 min to stabilize the physiological parameters. […] The compounds were diluted with buffer to a concentration of 10 μM (final DMSO concentration ≤1%) and added to the apical or basolateral sides of the cell monolayer. Compound permeability was assessed in duplicates and molecules of known permeability characteristics were used as controls (antipyrine, atenolol, talinolol, and estrone 3-sulfate). To calculate Papp, compound appearance was measured using LC–MS/MS. The efflux ratio was determined for bidirectional assays.

- efflux ratio at 10 µM [2]: 1.24
Compound: CCCc1nc2c(C)cc(-c3nc4ccccc4n3C)cc2n1Cc1ccc(-c2ccccc2C(=O)OC)cc1 [7b, Methyl 4′-((1,7′-dimethyl-2′-propyl-1H,3′H-[2,5′-bibenzo[d]imidazole]-3′-yl)methyl)-[1,1′-biphenyl]-2-carboxylate]
- phosphorylation status of STAT5 [1]: practically did not suppress pSTAT5
